Experimental findings from patent publication US9765075B2, “Substituted bridged urea analogs as sirtuin modulators” (GLAXOSMITHKLINE LLC, priority 2013, dated 2017) are described below.

The target in this assay is T1, SIRT1 (Homo sapiens, UniProt Q96EB6).
T1 sequence (Q96EB6 1-747): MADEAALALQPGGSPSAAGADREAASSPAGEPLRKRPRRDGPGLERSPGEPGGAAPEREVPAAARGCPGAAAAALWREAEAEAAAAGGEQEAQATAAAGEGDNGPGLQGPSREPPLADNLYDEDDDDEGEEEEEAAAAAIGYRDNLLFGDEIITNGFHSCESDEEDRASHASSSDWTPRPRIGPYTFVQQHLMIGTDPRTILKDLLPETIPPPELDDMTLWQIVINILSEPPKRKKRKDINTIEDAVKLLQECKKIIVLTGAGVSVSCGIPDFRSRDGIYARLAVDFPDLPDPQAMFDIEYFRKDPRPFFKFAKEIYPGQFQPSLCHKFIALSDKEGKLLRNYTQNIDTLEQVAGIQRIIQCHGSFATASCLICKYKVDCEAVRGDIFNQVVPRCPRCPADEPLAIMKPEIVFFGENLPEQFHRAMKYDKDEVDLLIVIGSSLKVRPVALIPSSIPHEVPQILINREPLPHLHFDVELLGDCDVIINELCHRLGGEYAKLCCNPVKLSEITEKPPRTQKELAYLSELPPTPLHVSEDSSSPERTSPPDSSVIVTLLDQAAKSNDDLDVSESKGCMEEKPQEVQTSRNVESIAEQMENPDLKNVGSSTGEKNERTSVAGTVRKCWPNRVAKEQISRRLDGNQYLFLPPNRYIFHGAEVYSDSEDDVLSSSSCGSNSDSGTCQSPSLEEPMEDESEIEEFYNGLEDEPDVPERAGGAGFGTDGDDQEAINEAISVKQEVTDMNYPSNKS
The assay can be described thus: Trp mass spectrometry assay (SIRT1 activation). The class given is biochemical. The note with it: Trp peptide substrate; for Tryp AVG EC1.5 (μM): concentration of test compound that results in 150% activation of SIRT1; for Emax: percent maximum fold activation of SIRT1, read-out: Tryp % Fold Act. In outline:
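Activation is expressed as EC1.5, the concentration raising activity 50% above DMSO control, and as maximum percent of control. Mass-spec readout was OAADPR or deacetylated Trp peptide after a formic-acid-quenched 25-min, 25 °C reaction: 10 nM bacterially expressed His-SIRT1, 0.5 μM acetyl-p53-derived peptide, 120 μM NAD+, pH 7.5 HEPES with […].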

As to `CN(C)c1cccc(-c2ccc3c(n2)N(C(=O)Nc2cccc(-c4cnco4)c2)[C@@H]2CCCN3C2)c1` [Example 264], the “Tryp AVG EC1.5 (μM)” value is on record as “A (EC1.5<1 μM)” and the Emax was at least 150%.
For `COc1cc(NC(=O)N2c3nc(-c4cccc(N(C)C)c4)ccc3N3CCC[C@@H]2C3)ncn1` [Example 265], the “Tryp AVG EC1.5 (μM)” value is “B (EC1.5 1-25 μM)” and the Emax was at least 150%.
Consider `CN(C)c1cccc(-c2ccc3c(n2)N(C(=O)Nc2cnccn2)[C@@H]2CCCN3C2)c1` [Example 266], for which the “Tryp AVG EC1.5 (μM)” value was “B (EC1.5 1-25 μM)” and the Emax is at least 150%.
Take `O=C(Nc1cnccn1)N1c2nc(-c3cccc(N4CC[C@@H](F)C4)c3)ccc2N2CC[C@H]1C2` [Example 267]: the “Tryp AVG EC1.5 (μM)” value is “B (EC1.5 1-25 μM)” and the Emax was at least 150%.
`O=C(Nc1cnccn1)N1c2nc(-c3cccc(N4CC[C@H](F)C4)c3)ccc2N2CC[C@H]1C2` [Example 268]: the “Tryp AVG EC1.5 (μM)” value is recorded as “A (EC1.5<1 μM)” and the Emax was at least 150%.
As for `O=C(Nc1ccc(F)cn1)N1c2nc(-c3cccc(N4CC[C@@H](F)C4)c3)ccc2N2CC[C@H]1C2` [Example 269], the “Tryp AVG EC1.5 (μM)” value is on record as “B (EC1.5 1-25 μM)” and the Emax is at least 150%.
In the same order, the values of `O=C(Nc1ccc(F)cn1)N1c2nc(-c3cccc(N4CC[C@H](F)C4)c3)ccc2N2CC[C@H]1C2` [Example 270] are “B (EC1.5 1-25 μM)” and at least 150%.
Consider `O=C(Nc1cncc(F)c1)N1c2nc(-c3cccc(N4CCC(F)(F)C4)c3)ccc2N2CC[C@H]1C2` [Example 271], for which the “Tryp AVG EC1.5 (μM)” value is recorded as “A (EC1.5<1 μM)” and the Emax is at least 150%.
In the case of `O=C(Nc1ccccn1)N1c2nc(-c3cccc(C(F)(F)F)c3)ccc2N2CCC[C@@H]1C2` [Example 272], the “Tryp AVG EC1.5 (μM)” value is “B (EC1.5 1-25 μM)” and the Emax was at least 150%.
The like results for `O=C(Nc1cncc(F)c1)N1c2nc(-c3cccc(C(F)(F)F)c3)ccc2N2CCC[C@@H]1C2` [Example 273] were, in that order, “A (EC1.5<1 μM)” and at least 150%.
As to `COc1cc(NC(=O)N2c3nc(-c4cccc(C(F)(F)F)c4)ccc3N3CCC[C@@H]2C3)ncn1` [Example 274], the “Tryp AVG EC1.5 (μM)” value is listed as “A (EC1.5<1 μM)” and the Emax is at least 150%.
As for `O=C(Nc1cnccn1)N1c2nc(-c3cncc(Cl)c3)ccc2N2CC[C@H]1C2` [Example 275], the “Tryp AVG EC1.5 (μM)” value was “A (EC1.5<1 μM)” and the Emax was at least 150%.
As for `O=C(Nc1ccncn1)N1c2nc(-c3cncc(C(F)(F)F)c3)ccc2N2CC[C@H]1C2` [Example 276], the “Tryp AVG EC1.5 (μM)” value was “A (EC1.5<1 μM)” and the Emax is at least 150%.
Turning to `O=C(Nc1ccc(F)cn1)N1c2nc(-c3cncc(C(F)(F)F)c3)ccc2N2CC[C@H]1C2` [Example 277], the “Tryp AVG EC1.5 (μM)” value is on record as “A (EC1.5<1 μM)” and the Emax is at least 150%.
Take `O=C(Nc1cnccn1)N1c2nc(-c3cncc(C(F)(F)F)c3)ccc2N2CC[C@H]1C2` [Example 278]: the “Tryp AVG EC1.5 (μM)” value is “A (EC1.5<1 μM)” and the Emax is at least 150%.
In the same order, the values of `O=C(Nc1ccccn1)N1c2nc(-c3cccc(N4CC[C@@H](F)C4)c3)ccc2N2CC[C@H]1C2` [Example 279] are “A (EC1.5<1 μM)” and at least 150%.
As to `O=C(Nc1ccccn1)N1c2nc(-c3cccc(N4CC[C@H](F)C4)c3)ccc2N2CC[C@H]1C2` [Example 280], the “Tryp AVG EC1.5 (μM)” value was “A (EC1.5<1 μM)” and the Emax is at least 150%.
With `COc1cc(NC(=O)N2c3nc(-c4cccc(N5CC[C@@H](F)C5)c4)ccc3N3CC[C@H]2C3)ncn1` [Example 281], the “Tryp AVG EC1.5 (μM)” value is listed as “A (EC1.5<1 μM)” and the Emax is at least 150%.
Take `O=C(Nc1cncc(F)c1)N1c2nc(-c3cccc(N4CC[C@@H](F)C4)c3)ccc2N2CC[C@H]1C2` [Example 282]: the “Tryp AVG EC1.5 (μM)” value was “A (EC1.5<1 μM)” and the Emax was at least 150%.
As to `O=C(Nc1cncc(F)c1)N1c2nc(-c3cccc(N4CC[C@H](F)C4)c3)ccc2N2CC[C@H]1C2` [Example 283], the “Tryp AVG EC1.5 (μM)” value is given as “A (EC1.5<1 μM)” and the Emax is at least 150%.
In the case of `O=C(Nc1cnccn1)N1c2nc(-c3ccnc(F)c3)ccc2N2CC[C@H]1C2` [Example 284], the “Tryp AVG EC1.5 (μM)” value is given as “B (EC1.5 1-25 μM)” and the Emax is at least 150%.
The like results for `O=C(Nc1cccc(-c2cnco2)c1)N1c2nc(N3CCCC(C(F)(F)F)C3)ccc2N2CCC[C@H]1C2` (stereo partly drawn) [Example 285] were, in that order, “A (EC1.5<1 μM)” and at least 150%.
For `O=C(Nc1ccccn1)N1c2nc(N3CCCC(C(F)(F)F)C3)ccc2N2CCC[C@H]1C2` (stereo partly drawn) [Example 286], the “Tryp AVG EC1.5 (μM)” value is “A (EC1.5<1 μM)” and the Emax is at least 150%.
With `Cc1cc(C)nc(NC(=O)N2c3nc(N4CCCC(C(F)(F)F)C4)ccc3N3CCC[C@H]2C3)c1` (stereo partly drawn) [Example 287], the “Tryp AVG EC1.5 (μM)” value is reported as “B (EC1.5 1-25 μM)” and the Emax is at least 150%.
For `O=C(Nc1cccnc1)N1c2nc(N3CCCC(C(F)(F)F)C3)ccc2N2CCC[C@H]1C2` (stereo partly drawn) [Example 288], the “Tryp AVG EC1.5 (μM)” value was “A (EC1.5<1 μM)” and the Emax is at least 150%.
With `Cc1cncc(NC(=O)N2c3nc(N4CCCC(C(F)(F)F)C4)ccc3N3CCC[C@H]2C3)c1` (stereo partly drawn) [Example 289], the “Tryp AVG EC1.5 (μM)” value was “A (EC1.5<1 μM)” and the Emax is at least 150%.
As to `O=C(Nc1cncc(F)c1)N1c2nc(N3CCCC(C(F)(F)F)C3)ccc2N2CCC[C@H]1C2` (stereo partly drawn) [Example 290], the “Tryp AVG EC1.5 (μM)” value is “A (EC1.5<1 μM)” and the Emax is at least 150%.
Regarding `O=C(Nc1ccncc1F)N1c2nc(N3CCCC(C(F)(F)F)C3)ccc2N2CCC[C@H]1C2` (stereo partly drawn) [Example 291], the “Tryp AVG EC1.5 (μM)” value is recorded as “B (EC1.5 1-25 μM)” and the Emax was at least 150%.
Consider `O=C(Nc1ncccn1)N1c2nc(N3CCCC(C(F)(F)F)C3)ccc2N2CCC[C@H]1C2` (stereo partly drawn) [Example 292], for which the “Tryp AVG EC1.5 (μM)” value was “A (EC1.5<1 μM)” and the Emax is at least 150%.
For `O=C(Nc1cnccn1)N1c2nc(N3CCCC(C(F)(F)F)C3)ccc2N2CCC[C@H]1C2` (stereo partly drawn) [Example 293], the “Tryp AVG EC1.5 (μM)” value is “A (EC1.5<1 μM)” and the Emax is at least 150%.
For `O=C(Nc1ccncn1)N1c2nc(N3CCCC(C(F)(F)F)C3)ccc2N2CCC[C@H]1C2` (stereo partly drawn) [Example 294], the “Tryp AVG EC1.5 (μM)” value is reported as “B (EC1.5 1-25 μM)” and the Emax is at least 150%.
Turning to `O=C(Nc1nccs1)N1c2nc(N3CCCC(C(F)(F)F)C3)ccc2N2CCC[C@H]1C2` (stereo partly drawn) [Example 295], the “Tryp AVG EC1.5 (μM)” value is on record as “A (EC1.5<1 μM)” and the Emax is at least 150%.
Turning to `Cc1cnc(NC(=O)N2c3nc(N4CCCC(C(F)(F)F)C4)ccc3N3CCC[C@H]2C3)s1` (stereo partly drawn) [Example 296], the “Tryp AVG EC1.5 (μM)” value was “B (EC1.5 1-25 μM)” and the Emax is at least 150%.
On to `Cc1csc(NC(=O)N2c3nc(N4CCCC(C(F)(F)F)C4)ccc3N3CCC[C@H]2C3)n1` (stereo partly drawn) [Example 297], for which the “Tryp AVG EC1.5 (μM)” value is “B (EC1.5 1-25 μM)” and the Emax was at least 150%.
In the case of `Cc1nc(NC(=O)N2c3nc(N4CCCC(C(F)(F)F)C4)ccc3N3CCC[C@H]2C3)sc1C` (stereo partly drawn) [Example 298], the “Tryp AVG EC1.5 (μM)” value was “B (EC1.5 1-25 μM)” and the Emax was at least 150%.
In the case of `O=C(Nc1cccc(-c2cnco2)c1)N1c2nc(N3CCCC(C(F)(F)F)C3)ccc2N2CCC[C@@H]1C2` (stereo partly drawn) [Example 299], the “Tryp AVG EC1.5 (μM)” value is “A (EC1.5<1 μM)” and the Emax was at least 150%.
For the compound `O=C(Nc1ccccn1)N1c2nc(N3CCCC(C(F)(F)F)C3)ccc2N2CCC[C@@H]1C2` (stereo partly drawn) [Example 300], the “Tryp AVG EC1.5 (μM)” value was “C (EC1.5>25 μM)” and the Emax is under 150%.
For the compound `Cc1cc(C)nc(NC(=O)N2c3nc(N4CCCC(C(F)(F)F)C4)ccc3N3CCC[C@@H]2C3)c1` (stereo partly drawn) [Example 301], the “Tryp AVG EC1.5 (μM)” value is given as “C (EC1.5>25 μM)” and the Emax is under 150%.
Regarding `O=C(Nc1cccnc1)N1c2nc(N3CCCC(C(F)(F)F)C3)ccc2N2CCC[C@@H]1C2` (stereo partly drawn) [Example 302], the “Tryp AVG EC1.5 (μM)” value is on record as “B (EC1.5 1-25 μM)” and the Emax was at least 150%.
As for `Cc1cncc(NC(=O)N2c3nc(N4CCCC(C(F)(F)F)C4)ccc3N3CCC[C@@H]2C3)c1` (stereo partly drawn) [Example 303], the “Tryp AVG EC1.5 (μM)” value is “B (EC1.5 1-25 μM)” and the Emax was at least 150%.
For `O=C(Nc1cncc(F)c1)N1c2nc(N3CCCC(C(F)(F)F)C3)ccc2N2CCC[C@@H]1C2` (stereo partly drawn) [Example 304], the “Tryp AVG EC1.5 (μM)” value was “B (EC1.5 1-25 μM)” and the Emax is at least 150%.
`O=C(Nc1ccncc1)N1c2nc(N3CCCC(C(F)(F)F)C3)ccc2N2CCC[C@@H]1C2` (stereo partly drawn) [Example 305]: the “Tryp AVG EC1.5 (μM)” value is recorded as “B (EC1.5 1-25 μM)” and the Emax was at least 150%.
